Like-named read-outs stand apart in the source and are kept apart here.
Tests used:
CDK5/p25 = CDK5/p25 (Homo sapiens, UniProt Q00535); assay: CDK5 mobility shift assay (enzymatic activity of CDK5/p25); type: biochemical; details: for IC50: 0.154 nM CDK5/p25, FL peptide 29, 60 min at room temperature, read-out: CDK5 IC50
Method: (§1) Compound potency was measured via a change in the enzymatic activity of CDK5/p25, and optionally of CDK2/CycA2. Enzymes, CDK5/p25 and CDK2/CycA2, were sourced from Carna Biosciences (Cat #04-106 and 04-103, respectively). Test compound stocks were diluted in 100% DMSO and serially diluted 3-fold in a 384-well plate using a TECAN EVO200 (TECAN). Staurosporine was used as a reference control compound in all assays.
(§2) Twenty nL of compound were transferred into a 384-well plate (Greiner 781201) using an Echo550 (Labcyte Inc). Enzyme, ATP, and 10 mM MgCl2 were preincubated at room temperature with the compound in assay buffer (50 mM HEPES pH 7.5, 1 mM EGTA, 0.01% Brij-35, 0.05% BSA, 2 mM DTT) for 30 minutes. Peptide substrate (FL peptide 29 (Perkin Elmer) for CDK5/p25; FL Peptide 18 (Perkin Elmer) for CDK2/CycA2) was added to initiate the reaction. The final assay contained 0.154 nM CDK5/p25 or 1.25 nM CDK2/CycA2, […] (for CDK5/p25) or 37 μM (for CDK2/CycA2) ATP, and 1.5 μM of the appropriate peptide substrate. The final DMSO concentration was <1%.
(§3) The CDK5/p25 reaction was incubated at room temperature for 60 min. The CDK2/CycA2 reaction was incubated at room temperature for 120 min. The reactions were quenched by the addition of 70 μL stopping buffer containing 0.5 M EDTA. Samples were analyzed using the EZ Reader (Perkin Elmer).
(§4) The results were expressed as % vehicle, where % vehicle=100×(U−C2)/(C1−C2), where U is the signal of sample, C1 is the average of the high controls (signal with no compound added), and C2 is the average of low controls (signal with the buffer in place of enzyme). The ICso is determined by fitting the percentage of inhibition as a function of compound concentrations using a 4-parameter fit defined as follows.
(§5) Y=Bottom+(Top−Bottom)/(1+10^((LobIC50-X)*Hill Slope)), where X is the log of the compound concentration, Y is the % vehicle or response at X, Top and Bottom are the plateaus in the same units as Y, and the Hill's Slope is unitless, and the ICso is the half-maximal inhibitory concentration.

CDK2/CycA2 = CDK2/CycA2 (Homo sapiens, UniProt P24941); assay: CDK2 mobility shift assay (enzymatic activity of CDK2/CycA2); type: biochemical; details: 1.25 nM CDK2/CycA2, 37 μM ATP, FL Peptide 18, 120 min at room temperature; read-out: CDK2 IC50
Method: as §1, §2, §3, §4, §5

[1] = fold more active against CDK5 than CDK2

Sequence of CDK5/p25 (Q00535 whole entry): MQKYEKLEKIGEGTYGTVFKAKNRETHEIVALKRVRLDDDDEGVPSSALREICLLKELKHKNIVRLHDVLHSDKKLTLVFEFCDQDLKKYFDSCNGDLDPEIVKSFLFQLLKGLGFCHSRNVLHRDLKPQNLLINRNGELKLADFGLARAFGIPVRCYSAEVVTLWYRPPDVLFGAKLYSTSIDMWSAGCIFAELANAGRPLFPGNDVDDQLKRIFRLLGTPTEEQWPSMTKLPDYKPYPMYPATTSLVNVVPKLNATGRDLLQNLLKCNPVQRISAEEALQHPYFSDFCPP
Sequence of CDK5/p25 (Q15078 99-307 partner limits assumed): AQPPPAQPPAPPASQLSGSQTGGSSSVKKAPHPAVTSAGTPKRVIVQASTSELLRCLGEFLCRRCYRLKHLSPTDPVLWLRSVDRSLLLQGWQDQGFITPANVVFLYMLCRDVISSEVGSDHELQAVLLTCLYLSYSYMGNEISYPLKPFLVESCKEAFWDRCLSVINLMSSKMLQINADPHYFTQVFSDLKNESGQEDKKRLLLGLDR

Row | Molecule | CDK5/CDK2 specificity (CDK5/p25) | IC50 (CDK5/p25) [nM] | IC50 (CDK2/CycA2) [nM] | CDK5/CDK2 specificity (CDK5/p25; [1])
1 | 3-fluoro-4-([2-[(1R)-1-hydroxy-1-(1-methylpiperidin-4-yl)ethyl]-1,6-naphthyridin-7-yl]amino)-[1,1-biphenyl]-3-carboxylic acid [Compound 360] | ++ (greater than 10-fold and less than or equal to 100-fold more active against CDK5 than CDK2) | < 10 | 10 to 100 | –
2 | CC(c1ccc2cnc(Nc3ccc(-c4noc(=O)[nH]4)cc3F)cc2n1)C1CCN(C)CC1 (racemic) [Compound 368] | – | < 10 | 100 to 1000 | ++ (greater than 10-fold and less than or equal to 100-fold more active against CDK5 than CDK2)
3 | O=C(O)[C@@H]1CNCC[C@@H]1Nc1ccc2cnc(Nc3ccc(-n4ccc(CO)n4)cc3F)cc2n1 (relative stereo) [Compound 131, cis-4-[[7-([2-fluoro-4-[3-(hydroxymethyl)pyrazol-1-yl]phenyl]amino)-1,6-naphthyridin-2-yl]amino]piperidine-3-carboxylic acid] | – | 100 to 1000 | > 1000 | ++ (greater than 10-fold and less than or equal to 100-fold more active against CDK5 than CDK2)
4 | CN1CCC(C(O)c2ccc3cnc(Nc4ccc(-n5cccn5)cc4F)cc3n2)CC1 (single isomer, unassigned) [Compound 175, (7-[[2-fluoro-4-(pyrazol-1-yl)phenyl]amino]-1,6-naphthyridin-2-yl) (1-methylpiperidin-4-yl)methanol] | – | < 10 | 100 to 1000 | +++ (greater than 100-fold more active against CDK5 than CDK2)
5 | CN1CCC(C(O)c2ccc3cnc(Nc4ccc(-n5cccn5)cc4F)cc3n2)CC1 (single isomer, unassigned) [Compound 176, (7-[[2-fluoro-4-(pyrazol-1-yl)phenyl]amino]-1,6-naphthyridin-2-yl) (1-methylpiperidin-4-yl)methanol] | – | 100 to 1000 | 100 to 1000 | + (10-fold or less more active against CDK5 than CDK2)
6 | CC(c1ccc2cnc(Nc3ccc(-n4ccc(CO)n4)cc3F)cc2n1)C1CCN(C)CC1 (single isomer, unassigned) [Compound 186, [1-[3-fluoro-4-([2-[1-(1-methylpiperidin-4-yl)ethyl]-1,6-naphthyridin-7-yl]amino)phenyl]pyrazol-3-yl]methanol] | – | 10 to 100 | > 1000 | ++ (greater than 10-fold and less than or equal to 100-fold more active against CDK5 than CDK2)
7 | CC(c1ccc2cnc(Nc3ccc(-n4ccc(CO)n4)cc3F)cc2n1)C1CCN(C)CC1 (single isomer, unassigned) [Compound 188, [1-[3-fluoro-4-([2-[1-(1-methylpiperidin-4-yl)ethyl]-1,6-naphthyridin-7-yl]amino)phenyl]pyrazol-3-yl]methanol] | – | < 10 | 100 to 1000 | +++ (greater than 100-fold more active against CDK5 than CDK2)
8 | CN1CCC(C(C)(O)c2ccc3cnc(Nc4ccc(-n5cccn5)cc4F)cc3n2)CC1 (single isomer, unassigned) [Compound 205, 1-(7-[[2-fluoro-4-(pyrazol-1-yl)phenyl]amino]-1,6-naphthyridin-2-yl)-1-(1-methylpiperidin-4-yl)ethanol] | – | 100 to 1000 | > 1000 | ++ (greater than 10-fold and less than or equal to 100-fold more active against CDK5 than CDK2)
9 | CN1CCC(C(C)(O)c2ccc3cnc(Nc4ccc(-n5cccn5)cc4F)cc3n2)CC1 (single isomer, unassigned) [Compound 216, 1-(7-[[2-fluoro-4-(pyrazol-1-yl)phenyl]amino]-1,6-naphthyridin-2-yl)-1-(1-methylpiperidin-4-yl)ethanol] | – | < 10 | 10 to 100 | ++ (greater than 10-fold and less than or equal to 100-fold more active against CDK5 than CDK2)
10 | CN1CCC(C(O)c2ccc3cnc(Nc4ccc(-n5ccc(CO)n5)cc4F)cc3n2)CC1 (single isomer, unassigned) [Compound 247, [7-([2-fluoro-4-[3-(hydroxymethyl)pyrazol-1-yl]phenyl]amino)-1,6-naphthyridin-2-yl](1-methylpiperidin-4-yl)methanol] | – | 10 to 100 | > 1000 | ++ (greater than 10-fold and less than or equal to 100-fold more active against CDK5 than CDK2)
11 | N#Cc1cccc(-c2ccc(Nc3cc4nc(C(O)C5CCN(CCO)CC5)ccc4cn3)c(F)c2)c1 (single isomer, unassigned) [Compound 250, 3′-fluoro-4′-[(2-[hydroxy[1-(2-hydroxyethyl)piperidin-4-yl]methyl]-1,6-naphthyridin-7-yl)amino]-[1,1′-biphenyl]-3-carbonitrile] | – | < 10 | 100 to 1000 | ++ (greater than 10-fold and less than or equal to 100-fold more active against CDK5 than CDK2)
12 | N#Cc1cccc(-c2ccc(Nc3cc4nc(C(O)C5CCN(CCO)CC5)ccc4cn3)c(F)c2)c1 (single isomer, unassigned) [Compound 251, 3′-fluoro-4′-[(2-[hydroxy[1-(2-hydroxyethyl)piperidin-4-yl]methyl]-1,6-naphthyridin-7-yl)amino]-[1,1′-biphenyl]-3-carbonitrile] | – | 10 to 100 | > 1000 | ++ (greater than 10-fold and less than or equal to 100-fold more active against CDK5 than CDK2)
13 | OCCN1CCC(C(O)c2ccc3cnc(Nc4ccc(-n5ccc(CO)n5)cc4F)cc3n2)CC1 (single isomer, unassigned) [Compound 252, 2-(4-[[7-([2-fluoro-4-[3-(hydroxymethyl)pyrazol-1-yl]phenyl]amino)-1,6-naphthyridin-2-yl](hydroxy)methyl]piperidin-1-yl)ethanol] | – | < 10 | 100 to 1000 | +++ (greater than 100-fold more active against CDK5 than CDK2)
14 | CN1CCC(C(O)c2ccc3cnc(Nc4ccc(-n5ccc(CO)n5)cc4F)cc3n2)CC1 (single isomer, unassigned) [Compound 254, [7-([2-fluoro-4-[3-(hydroxymethyl)pyrazol-1-yl]phenyl]amino)-1,6-naphthyridin-2-yl](1-methylpiperidin-4-yl)methanol] | – | < 10 | 100 to 1000 | +++ (greater than 100-fold more active against CDK5 than CDK2)
15 | OCCN1CCC(C(O)c2ccc3cnc(Nc4ccc(-n5ccc(CO)n5)cc4F)cc3n2)CC1 (single isomer, unassigned) [Compound 255, 2-(4-[[7-([2-fluoro-4-[3-(hydroxymethyl)pyrazol-1-yl]phenyl]amino)-1,6-naphthyridin-2-yl](hydroxy)methyl]piperidin-1-yl)ethanol] | – | 100 to 1000 | > 1000 | ++ (greater than 10-fold and less than or equal to 100-fold more active against CDK5 than CDK2)
16 | CN1CCC(C(O)(c2ccc3cnc(Nc4ccc(-n5cccn5)cc4F)cc3n2)C(F)(F)F)CC1 (single isomer, unassigned) [Compound 343, 2,2,2-trifluoro-1-(7-((2-fluoro-4-(1H-pyrazol-1-yl)phenyl)amino)-1,6-naphthyridin-2-yl)-1-(1-methylpiperidin-4-yl)ethan-1-ol] | – | 100 to 1000 | > 1000 | ++ (greater than 10-fold and less than or equal to 100-fold more active against CDK5 than CDK2)

Source: US20220389009A1, “SUBSTITUTED 1,6-NAPHTHYRIDINE INHIBITORS OF CDK5” (Goldfinch Bio, Inc., priority 2019, published 2022)
